Calls of active or inactive are those of the source.
How the values were obtained:
[1] = molecular target: DNA damage-inducible transcript 3 protein (Mus musculus, UniProt P35639); type: functional, Cricetulus griseus
Coagulation factor XII = molecular target: T1, Coagulation factor XII (Homo sapiens, UniProt P00748); type: functional;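 also: activated factor XIIa alpha cleaving a fluorogenic AMC peptide substrate; inhibitor potency from loss of enzyme activity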
T1 sequence (P00748 whole entry): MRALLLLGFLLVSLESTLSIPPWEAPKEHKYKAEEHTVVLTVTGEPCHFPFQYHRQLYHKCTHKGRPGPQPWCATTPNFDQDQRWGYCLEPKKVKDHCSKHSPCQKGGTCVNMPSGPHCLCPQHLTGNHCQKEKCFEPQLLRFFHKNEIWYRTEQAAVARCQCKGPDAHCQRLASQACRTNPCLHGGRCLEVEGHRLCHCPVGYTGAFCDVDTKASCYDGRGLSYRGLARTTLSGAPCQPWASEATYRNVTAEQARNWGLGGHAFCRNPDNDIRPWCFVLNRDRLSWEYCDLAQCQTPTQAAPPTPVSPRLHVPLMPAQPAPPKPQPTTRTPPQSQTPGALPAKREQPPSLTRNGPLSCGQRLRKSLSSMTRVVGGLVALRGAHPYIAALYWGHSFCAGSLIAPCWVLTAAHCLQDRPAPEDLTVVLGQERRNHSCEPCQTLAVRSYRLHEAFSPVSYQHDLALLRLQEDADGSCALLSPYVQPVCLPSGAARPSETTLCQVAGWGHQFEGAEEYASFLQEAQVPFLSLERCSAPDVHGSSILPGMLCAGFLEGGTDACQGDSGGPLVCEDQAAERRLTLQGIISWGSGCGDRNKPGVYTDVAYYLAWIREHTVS

[2] = molecular target: T2, Heat shock factor protein 1 (Mus musculus, UniProt P38532); assay: decrease of HSF1-responsive luciferase luminescence – cell-based, NIH3T3, dose retest, confirmation (AID 2382); type: functional;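 also: NIH3T3 fibroblasts with HSF1-driven luciferase reporter stressed by proteasome inhibitor MG132; luminescence from HSF1-driven luciferase expression after 8 hours of MG132 stress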
T2 sequence (P38532 whole entry): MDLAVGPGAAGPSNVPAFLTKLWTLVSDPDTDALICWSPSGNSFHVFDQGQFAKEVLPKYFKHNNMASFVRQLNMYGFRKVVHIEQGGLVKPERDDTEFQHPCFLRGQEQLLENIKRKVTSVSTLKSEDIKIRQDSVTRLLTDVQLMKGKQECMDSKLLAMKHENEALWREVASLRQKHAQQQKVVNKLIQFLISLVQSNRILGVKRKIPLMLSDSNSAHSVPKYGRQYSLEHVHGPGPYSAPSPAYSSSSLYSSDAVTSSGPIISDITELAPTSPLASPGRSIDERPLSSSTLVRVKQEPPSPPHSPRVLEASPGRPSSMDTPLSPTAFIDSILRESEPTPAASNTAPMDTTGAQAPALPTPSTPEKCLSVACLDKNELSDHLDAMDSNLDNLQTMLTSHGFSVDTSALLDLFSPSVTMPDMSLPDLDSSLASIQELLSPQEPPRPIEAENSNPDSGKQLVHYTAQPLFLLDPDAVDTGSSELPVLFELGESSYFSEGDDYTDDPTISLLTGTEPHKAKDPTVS

Troponin, cardiac muscle = Troponin, cardiac muscle (Homo sapiens, UniProt P19429+P45379+P63316); assay: Fluorescence-based biochemical high throughput dose response assay for activators of the calcium sensitivity of cardiac Regulated Thin Filaments (RTF). [Related pubchem assays (depositor defined):AID493008, AID493018, AID504382, AID504383]; type: protein-complex assay
Galanin receptor type 3 = Galanin receptor type 3 (Homo sapiens, UniProt O60755); assay: Fluorescence-based cell-based primary high throughput dose response assay to identify antagonists of the Galanin Receptor 3 (GalR3).; type: functional
[3] = molecular target: T3, Microphthalmia-associated transcription factor (Homo sapiens, UniProt O75030); assay: reducers of TRPM1 reporter luminescence, concentration series – cell-based, SK-MEL-5, cherry-picked, set 3, MITF inhibitor project, dose response (AID 493073); type: functional;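 also: SK-MEL-5 melanoma cells with luciferase driven by the MITF target TRPM1 promoter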
T3 sequence (O75030 whole entry): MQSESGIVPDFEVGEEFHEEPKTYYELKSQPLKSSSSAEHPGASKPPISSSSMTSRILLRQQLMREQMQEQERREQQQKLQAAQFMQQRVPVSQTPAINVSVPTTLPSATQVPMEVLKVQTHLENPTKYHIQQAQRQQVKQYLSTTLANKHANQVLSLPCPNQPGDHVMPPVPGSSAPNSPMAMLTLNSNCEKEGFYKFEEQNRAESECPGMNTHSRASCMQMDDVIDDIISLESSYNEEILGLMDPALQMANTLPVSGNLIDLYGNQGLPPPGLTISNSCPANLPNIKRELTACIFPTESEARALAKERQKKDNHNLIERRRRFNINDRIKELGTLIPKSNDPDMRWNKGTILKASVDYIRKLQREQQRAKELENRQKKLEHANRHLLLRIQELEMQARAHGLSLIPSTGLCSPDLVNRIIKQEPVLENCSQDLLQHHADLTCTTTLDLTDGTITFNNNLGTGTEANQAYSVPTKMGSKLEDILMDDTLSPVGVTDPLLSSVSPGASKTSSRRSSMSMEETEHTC

cells = type: functional, cell-based; conditions: HEK-CNG
A-375 = assay: proliferation inhibition in MITF-low A375 cells – cell-based, cherry-pick samples, set 2, counter-screen for MITF modulator project, dose response (AID 540335); type: functional; conditions: Homo sapiens
H4 = assay: Luminescence Cell-Based Dose Response HTS to Identify Activators of 5'UTR Stem-Loop Driven Prion Protein mRNA Translation in H4 Neuroglioblastoma Cells. [Related pubchem assays: 1829 (Project Summary), 1814 (Primary HTS)]; type: functional; conditions: Homo sapiens
Paired box protein Pax-8 = Paired box protein Pax-8 (Homo sapiens, UniProt Q06710); assay: PAX8 transcriptional activity inhibition in RMG-I – RMG-I cells, luciferase, cherry-pick, dose response (AID 687027); type: functional, cell-based;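 also: luciferase reporter driven by Pax8 target thyroperoxidase promoter measured by SteadyGlo luminescence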
[4] = molecular target: G-protein coupled receptor 55 (Homo sapiens, UniProt Q9Y2T6); assay: inhibition of LPI-stimulated GPR55 beta-arrestin translocation – imaging, U2OS, beta-arrestin-GFP, LPI agonist, primary screen (AID 2013); type: functional;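 also: antagonist potency measured as reduced agonist-driven arrestin aggregation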
[5] = Fluorescence-based cell-based high throughput dose response assay for inhibitors of the interaction of nucleotide-binding oligomerization domain containing 2 (NOD2) and the receptor-interacting serine-threonine kinase 2 (RIPK2).; type: functional; conditions: Homo sapiens
[6] = Luminescence Cell-Based Dose Confirmation HTS to Identify Activators of 5'UTR Stem-Loop Driven Alpha-Synuclein mRNA Translation in H4 Neuroglioblastoma Cells. [Related pubchem assays: 1829 (Project Summary), 1814 (Primary HTS)]; type: functional
[7] = Luminescence Cell-Based Dose Response HTS to Identify Activators of Luciferase Translation or Activity in H4 […] Cells. [Related pubchem assays: 1829 (Project Summary), 1814 (Primary HTS)]; type: functional
[8] = molecular target: T4, High affinity choline transporter 1 (Homo sapiens, UniProt Q9GZV3); assay: human choline transporter blockers, potency – cell-based, 5-point CRC, membrane potential dye, dose response (AID 504840); type: functional
T4 sequence (Q9GZV3 whole entry): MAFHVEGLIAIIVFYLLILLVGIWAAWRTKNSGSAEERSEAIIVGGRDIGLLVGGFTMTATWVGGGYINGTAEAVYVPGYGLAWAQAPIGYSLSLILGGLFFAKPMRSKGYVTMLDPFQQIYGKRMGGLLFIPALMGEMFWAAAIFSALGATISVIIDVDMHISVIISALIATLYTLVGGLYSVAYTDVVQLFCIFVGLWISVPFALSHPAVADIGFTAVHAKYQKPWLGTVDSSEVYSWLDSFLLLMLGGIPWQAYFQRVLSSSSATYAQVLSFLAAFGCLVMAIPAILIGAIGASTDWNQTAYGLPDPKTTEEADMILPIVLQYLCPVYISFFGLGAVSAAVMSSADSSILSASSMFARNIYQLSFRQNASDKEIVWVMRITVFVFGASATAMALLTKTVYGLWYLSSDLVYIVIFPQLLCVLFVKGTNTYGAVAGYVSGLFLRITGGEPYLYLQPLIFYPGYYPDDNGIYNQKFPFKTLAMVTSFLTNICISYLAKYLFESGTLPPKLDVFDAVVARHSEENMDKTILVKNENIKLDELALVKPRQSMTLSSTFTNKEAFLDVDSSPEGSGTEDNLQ

HEK293 [9] = assay: cells; type: functional, cell-based; conditions: Homo sapiens
HEK293 [10] = assay: cells; type: functional, cell-based; conditions: Homo sapiens; remark: listed apart in the source
HEK293 [11] = assay: cells; conditions: Homo sapiens
HEK293 [12] = assay: inhibition of NOD1-driven NF-kB reporter – cell-based, luminescence, uHTS, primary screen (AID 1578); type: functional; conditions: Homo sapiens
Tumor necrosis factor = Tumor necrosis factor (Homo sapiens, UniProt P01375); assay: analog potency on TNFa NF-kB signaling – cell-based, revised, SAR follow-up (AID 2337); type: functional
HEK293 [13] = assay: cells; type: functional, cell-based; conditions: Homo sapiens; remark: listed apart in the source
[14] = molecular target: T5, Nucleotide-binding oligomerization domain-containing protein 1 (Homo sapiens, UniProt Q9Y239); assay: blockers of NOD1 pathway activity – revised, SAR follow-up (AID 2333); type: functional
T5 sequence (Q9Y239 whole entry): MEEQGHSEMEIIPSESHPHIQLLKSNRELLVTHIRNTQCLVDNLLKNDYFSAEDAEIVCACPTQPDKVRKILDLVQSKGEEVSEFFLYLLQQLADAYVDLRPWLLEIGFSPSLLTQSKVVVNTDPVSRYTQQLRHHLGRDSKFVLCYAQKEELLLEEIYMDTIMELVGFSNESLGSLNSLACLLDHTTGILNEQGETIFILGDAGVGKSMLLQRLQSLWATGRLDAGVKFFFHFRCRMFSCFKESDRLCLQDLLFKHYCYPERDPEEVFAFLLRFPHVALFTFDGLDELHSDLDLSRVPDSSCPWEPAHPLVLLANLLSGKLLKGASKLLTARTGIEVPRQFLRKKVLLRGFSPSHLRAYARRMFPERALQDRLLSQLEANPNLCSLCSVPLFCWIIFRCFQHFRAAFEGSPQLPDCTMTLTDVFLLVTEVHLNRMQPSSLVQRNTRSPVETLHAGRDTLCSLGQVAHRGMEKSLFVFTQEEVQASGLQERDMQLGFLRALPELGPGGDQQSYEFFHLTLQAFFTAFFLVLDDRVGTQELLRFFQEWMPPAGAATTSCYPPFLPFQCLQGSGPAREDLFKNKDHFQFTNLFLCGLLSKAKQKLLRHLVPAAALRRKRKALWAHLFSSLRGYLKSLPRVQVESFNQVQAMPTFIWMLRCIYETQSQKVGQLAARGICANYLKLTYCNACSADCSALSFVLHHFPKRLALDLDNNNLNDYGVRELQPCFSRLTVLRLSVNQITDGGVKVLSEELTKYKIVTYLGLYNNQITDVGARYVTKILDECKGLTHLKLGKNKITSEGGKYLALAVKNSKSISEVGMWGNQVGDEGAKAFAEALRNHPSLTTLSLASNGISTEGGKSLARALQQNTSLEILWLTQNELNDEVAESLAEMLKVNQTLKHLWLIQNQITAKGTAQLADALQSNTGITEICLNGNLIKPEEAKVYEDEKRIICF

[15] = molecular target: T6, Nucleotide-binding oligomerization domain-containing protein 2 (Homo sapiens, UniProt Q9HC29); assay: inhibition of NOD2-driven NF-kB reporter – cell-based, luminescence, uHTS, HEK293 (AID 1566); type: functional
[16] = molecular target: T6, Nucleotide-binding oligomerization domain-containing protein 2; assay: PubChem AID 2334; type: functional
HEK293 [17] = assay: NOD2 signaling inhibitors in MDP-stimulated cells, cell-based, uHTS, luminescence (AID 2001); type: functional; conditions: Homo sapiens

CC(C)Oc1ccc(CNC(=S)N/N=C/c2ccc([N+](=O)[O-])cc2)cc1
Absolute IC50 (CHOP) [1]: 10 µM
IC50 (Coagulation factor XII): > 50 µM (inactive)
EC50 [2]: > 195 µM (not active)

COCCn1c(=O)c2ccccc2c2ccccc2c1=O
EC50 (Troponin, cardiac muscle): > 71.5 µM (inactive)

CCCCn1c(=O)[nH]c(=O)c2c1nc(Cn1ncc(Cl)c(Cl)c1=O)n2CCC
IC50 (Galanin receptor type 3): > 3.32 µM (active)
AC50 [3]: 8.12 µM (active)
EC50 (cells): > 29.9 µM (inactive)
AC50 (A-375): 28.9 µM (active)
EC50 (H4): > 120 µM (not active)
AC50 (Paired box protein Pax-8): 6.68 µM (active)
IC50 [4]: 6.1 µM (active)
IC50 [5]: 2.15 µM (active)
EC50 [6]: > 120 µM (not active)
EC50 [7]: > 120 µM (not active)
IC50 [8]: 12.6 µM (active)
EC50 [2]: 2.89 µM (active)

Cc1c(C(=O)OCC(=O)c2c(N)n(CC(C)C)c(=O)n(C)c2=O)oc2ccccc12
IC50 (HEK293 [9]): > 20 µM (inactive)
IC50 (HEK293 [10]): > 20 µM (inactive)
IC50 (HEK293 [11]): > 20 µM (inactive)
EC50 (HEK293 [12]): 15.7 µM (active)
IC50 (Tumor necrosis factor): > 20 µM (inactive)
IC50 (HEK293 [13]): > 20 µM (inactive)
IC50 [14]: 17.4 µM (active)
EC50 [15]: > 20 µM (inactive)
IC50 [16]: 14.9 µM (active)
IC50 (HEK293 [17]): 19 µM (inactive)

CCOc1ccc2nc(NC(=O)CSc3nc4c(c(=O)n(C)c(=O)n4C)n3C(C)C)sc2c1
Absolute IC50 (CHOP) [1]: 10 µM

Source: ChEMBL document CHEMBL1201862, “PubChem BioAssay data set” (2004)
